In experiment [1] the test system is female NMRI mice. The experiment is described as follows: Anorectic action: cumulative milk consumption after oral administration. The experiment is classed as in vivo. To be noted: for cumulative milk consumption by treated animals: feed removed 17 h, monitored for 7 hours, N=5; for Reduction in cumulative milk consumption as % of the control: versus vehicle-treated control animals. The method, then:
The anorectic action was tested on female NMRI mice. After removal of feed for 17 hours, the preparation to be tested was administered by gavage. The animals were housed singly and, with free access to drinking water, they were offered evaporated milk 30 minutes after administration of the preparation. The consumption of evaporated milk was determined and the general behavior of the animals were monitored every half an hour for 7 hours. The measured milk consumption was compared to that of vehicle-treated control animals.

In experiment [2] the target is T1, human MCH receptor (Homo sapiens, UniProt Q99705).
T1 construct: expressed in transfected cells
T1 sequence (Q99705 whole entry): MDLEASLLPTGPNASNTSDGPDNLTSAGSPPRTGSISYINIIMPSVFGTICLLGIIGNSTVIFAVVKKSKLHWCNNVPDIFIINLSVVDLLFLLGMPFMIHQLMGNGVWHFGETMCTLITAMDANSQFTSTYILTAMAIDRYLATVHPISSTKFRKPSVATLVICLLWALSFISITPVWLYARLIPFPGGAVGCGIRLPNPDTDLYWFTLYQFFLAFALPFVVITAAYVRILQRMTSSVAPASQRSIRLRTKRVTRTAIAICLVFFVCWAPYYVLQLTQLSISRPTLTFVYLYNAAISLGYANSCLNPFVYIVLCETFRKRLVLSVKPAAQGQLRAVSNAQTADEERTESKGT
Put plainly: Functional measurement of cellular calcium flow (FLIPR) in recombinant HEK293 cells expressing human MCH receptor. The experiment is classed as cell-based. The note with it: cellular assay, calcium flow after addition of agonist (MCH), HEK293 (PEAK Stable Cells) expressing human MCH receptor. An excerpt:
In two simultaneously published articles in Nature (Nature, 400:261-264, 1999; Nature, 400:265-269, 1999, see enclosure), two groups separately described a highly specific receptor for melanin-concentrating hormone (MCH). MCH takes over important functions in the control of food intake. Compounds acting on the MCH receptor therefore have anorectic action and are suitable for the treatment of obesity. The test for anorectic action of the inventive compounds of formula I was therefore carried out as follows.
Functional measurements for determination of IC50
Cloning of the cDNA for human MCH receptor, preparation of a recombinant HEK293 cell line expressing human MCH receptor and functional measurements with said recombinant cell line were carried out according to the description by Audinot et al. (J. Biol. Chem., 276, 13554-13562, 2001). In contrast to the reference, however, plasmid pEAK8 from EDGE Biosystems (USA) was used for constructing the expression vector. A transformed HEK cell line named “PEAK Stable Cells” (likewise from EDGE Biosystems) served as host for transfection. The functional measurements of cellular calcium flow, after addition of agonists (MCH), in the presence of the ligand of the invention was carried out with the aid of the FLIPR instrument from Molecular Devices (USA), using the manufacturer's protocols.

Regarding `CN(C)CCn1ccc2cc(NC(=O)Nc3ccc(Oc4ccccc4)cc3)ccc21` [Example 1, 1-[1-(2-Dimethylaminoethyl)-1H-indol-5-yl]-3-(4-phenoxyphenyl)urea], in experiment [1] (oral dose 30 mg/kg by gavage), the “cumulative milk consumption by treated animals” value is 5/2.28 mL and the “Reduction in cumulative milk consumption as % of the control” value amounted to 30%. Further, in experiment [2], the IC50 stood at 150 nM. Turning to `CN(C)CCn1cnc2cc(NC(=O)Nc3ccc(Oc4ccccc4)cc3)ccc21` [Example 4, 1-[1-(2-Dimethylaminoethyl)-1H-benzoimidazol-5-yl]-3-(4-phenoxyphenyl)urea], in experiment [1] (oral dose 10 mg/kg by gavage), the “cumulative milk consumption by treated animals” value is 5/2.74 mL and the “Reduction in cumulative milk consumption as % of the control” value is recorded as 38%. In addition, the half-inhibitory concentration (IC50) in experiment [2] worked out at 130 nM.

For `CN(C)CCn1c(-c2ccccc2)nc2cc(NC(=O)Nc3ccc(Oc4ccccc4)cc3)ccc21` [Example 13, 1-[1-(2-Dimethylaminoethyl)-2-phenyl-1H-benzoimidazol-5-yl]-3-(4-phenoxyphenyl)urea], in experiment [2], the IC50 came out at 2500 nM. As to `CC(C)COc1ccc(NC(=O)Nc2ccc3c(ccn3CCN(C)C)c2)cc1` [Example 72, 1-[1-(2-Dimethyl-aminoethyl)-1H-in-dol-5-yl]-3-(4-iso-butoxyphenyl)urea], the IC50 in experiment [2] came out at 320 nM.

On to `O=C(Nc1ccc(Oc2ccccc2)cc1)Nc1ccc2c(c1)ncn2CCN1CCCC1` [Example 11, 1-(4-Phenoxyphenyl)-3-[1-(2-pyrrolidin-1-ylethyl)-1H-benzoimidazol-5-yl]urea], for which the IC50 in experiment [2] was 140 nM. For the compound `Cc1cc2cc(NC(=O)Nc3ccc(Oc4ccccc4)cc3)ccc2n1CCN(C)C` [Example 19, 1-[1-(2-Dimethylaminoethyl)-2-methyl-1H-indol-5-yl]-3-(4-phenoxyphenyl)urea], the concentration for half-maximal inhibition (IC50) in experiment [2] came to 700 nM.

Turning to `Cc1c(C)n(CCN(C)C)c2ccc(NC(=O)Nc3ccc(Oc4ccccc4)cc3)cc12` [Example 18, 1-[1-(2-Dimethylaminoethyl)-2,3-dimethyl-1H-indol-5-yl]-3-(4-phenoxyphenyl)urea], the IC50 in experiment [2] came out at 1040 nM. Same read-out and setting: to `CN(C)CCn1ccc2cc(NC(=O)Nc3ccc(Oc4ccccc4)nc3)ccc21` [Example 106, 1-[1-(2-Di-methylaminoethyl)-1H-in-dol-5-yl]-3-(6-phenoxy-pyridin-3-yl)urea] belongs 200 nM; to `CCCCc1ccc(NC(=O)Nc2ccc3c(ccn3CCN(C)C)c2)cc1` [Example 71, 1-(4-Butylphenyl)-3-[1-(2-di-methylaminoethyl)-1H-in-dol-5-yl]urea], 2650 nM; to `Cc1nc2cc(NC(=O)Nc3ccc(OC(C)C)cc3)ccc2n1CCN1CCCCC1` [Example 7, 1-(4-Isopropoxyphenyl)-3-[2-methyl-1-(2-piperidin-1-ylethyl)-1H-benzoimidazol-5-yl]urea], 450 nM. The same measure, in the same setting: to `Cc1cccc(Oc2ccc(NC(=O)Nc3ccc4c(ccn4CCN(C)C)c3)cc2)c1` [Example 107, 1-[1-(2-Di-methylaminoethyl)-1H-in-dol-5-yl]-3-(4-m-tolyl-oxyphenyl)urea] belongs 1000 nM; to `CN(C)CCn1ccc2cc(NC(=O)Nc3ccc(N4CCSCC4)cc3)ccc21` [Example 26, 1-[1-(2-Di-methylaminoethyl)-1H-in-dol-5-yl]-3-(4-thio-morpholin-4-yl-phe-nyl)urea], 920 nM.

For `CN(C)CCn1ccc2cc(NC(=O)Nc3ccc(N4CCCC4)cc3)ccc21` [Example 22, 1-[1-(2-Di-methylaminoethyl)-1H-in-dol-5-yl]-3-(4-pyr-rolidin-1-ylphe-nyl)urea], the IC50 in experiment [2] was found to be 4420 nM. The same measure, in the same setting: to `CN(C)CCn1ccc2cc(NC(=O)Nc3ccc(Oc4ccccc4Cl)cc3)ccc21` [Example 105, 1-[4-(2-Chloro-phenoxy)-phenyl]-3-[1-(2-di-methylaminoethyl)-1H-in-dol-5-yl]urea] belongs 1000 nM; to `CC1CCN(c2ccc(NC(=O)Nc3ccc4c(ccn4CCN(C)C)c3)cc2)CC1` [Example 33, 1-[1-(2-Di-methylaminoethyl)-1H-in-dol-5-yl]-3-[4-(4-methyl-piperidin-1-yl)phe-nyl]urea], 1240 nM; to `CN(C)CCn1ccc2cc(NC(=O)Nc3ccc(OCc4ccccc4)cc3)ccc21` [Example 80, 1-(4-Benzyloxyphenyl)-3-[1-(2-di-methylaminoethyl)-1H-in-dol-5-yl]urea], 3360 nM. Still for that read-out and setting: the figure for `CN(C)CCn1ccc2cc(NC(=O)Nc3ccc(Oc4cccc(C(F)(F)F)c4)cc3)ccc21` [Example 86, 1-[1-(2-Di-methylaminoethyl)-1H-in-dol-5-yl]-3-[4-(3-tri-fluoromethyl-phenoxy)phenyl]urea] is 2780 nM; for `Cc1ccccc1Oc1ccc(NC(=O)Nc2ccc3c(ccn3CCN(C)C)c2)cc1` [Example 108, 1-[1-(2-Di-methylaminoethyl)-1H-in-dol-5-yl]-3-(4-o-tolyl-oxyphenyl)urea] it is 430 nM; for `Cc1nc2cc(NC(=O)Nc3ccc(OC(C)C)cc3)ccc2n1CCN1CCOCC1` [Example 8, 1-(4-Isopropoxyphenyl)-3-[2-methyl-1-(2-morpholin-4-yl-ethyl)-1H-benzoimidazol-5-yl]urea] it is 1900 nM.

In the case of `COc1cc(Nc2ccccc2)ccc1NC(=O)Nc1ccc2c(ccn2CCN(C)C)c1` [Example 79, 1-[1-(2-Dimethyl-aminoethyl)-1H-indol-5-yl]-3-(2-meth-oxy-4-phenyl-aminophenyl)-urea], in experiment [2], the half-maximal inhibitory concentration (IC50) is 2130 nM. As for `COc1ccccc1Oc1ccc(NC(=O)Nc2ccc3c(ccn3CCN(C)C)c2)cc1` [Example 76], the IC50 in experiment [2] was found to be 4250 nM. Same read-out and setting: the figure for `Cc1nc2cc(NC(=O)Nc3ccc(Oc4ccccc4)cc3)ccc2n1CCN1CCCCC1` [Example 15, 1-[2-Methyl-1-(2-piperidin-1-ylethyl)-1H-benzoimidazol-5-yl]-3-(4-phenoxyphenyl) urea] is 180 nM.

Regarding `CCN1CCCC1Cn1c(C)nc2cc(NC(=O)Nc3ccc(OC(C)C)cc3)ccc21` (centres unmarked) [Example 6, 1-[1-(1-Ethylpyrrolidin-2-ylmethyl)-2-methyl-1H-benzoimidazol-5-yl]-3-(4-isopropoxyphenyl)urea], the half-inhibitory concentration (IC50) in experiment [2] came to 2340 nM. On the same count and under the same terms, to `CCc1nc2cc(NC(=O)Nc3ccc(Oc4ccccc4)cc3)ccc2n1CCN1CCCC1` [Example 14, 1-[2-Ethyl-1-(2-pyrrolidin-1-ylethyl)-1H-benzoimidazol-5-yl]-3-(4-phenoxyphenyl)urea] belongs 300 nM; to `Cn1c(CN2CCCC2)cc2cc(NC(=O)Nc3ccc(Oc4ccccc4)cc3)ccc21` [Example 3, 1-(1-Methyl-2-pyrrolidin-1-ylmethyl-1H-indol-5-yl)-3-(4-phenoxyphenyl)urea], 290 nM.

One may read the IC50 as the concentration that inhibits the measured activity by half.

These data come from US20040198731A1, “Aminoalkyl-substituted aromatic bicyclic compounds, methods for their preparation and their use as pharmaceuticals” (Aventis Pharma Deutschland GmbH, priority 2001, published 2004).
